Laboratory results published in paper PMC12114846, “Interleukin-15Rα-Sushi-Fc Fusion Protein Co-Hitchhikes Interleukin-15 and Pheophorbide A for Cancer Photoimmunotherapy” (Pharmaceutics, 2025).

Legend:
[1] = tested on: M-07e cells; assay: Proliferation of M-07e cells (WST-1); format: cell-based; conditions: for EC50: 72 h incubation, WST-1
Protocol: The protein of rIL-15 and rILR-Fc were analyzed by sodium dodecyl sulfate–polyacrylamide gel electrophoresis (SDS-PAGE) and a Western blot. The Western blot was performed according to our previously reported method. The primary antibody used in the Western blot was the his-tag mouse monoclonal antibody (1:5000, 66005-1-Ig, Proteintech, Wuhan, China), and the secondary antibody was horseradish peroxidase (HRP)-conjugated goat anti-mouse IgG (1:5000, 33201ES60, Yeasen, Shanghai, China). The biological activity of rIL-15 and rILR-Fc/rIL-15 was determined by their ability to stimulate the proliferation of M-07e cells.
The biological activity of the nanoparticles was determined by their ability to stimulate the proliferation of M-07e cells, as described in the Supplementary Materials. […]
gene fragment (ILR-Fc), which was then ligated into the liner pPIC9k vector. […]
Matrix-assisted laser desorption/ionization time-of-flight mass spectrometry (MALDI-TOF-MS) analysis was performed to calculate the molecular mass of rILR-Fc, with sinapic acid selected as the matrix. The released oligosaccharides were analyzed by sodium dodecyl sulfate-polyacrylamide gel electrophoresis (SDS-PAGE). […]
The biological activity of recombinant proteins or nanoparticles were determined by their ability to stimulate the proliferation of M-07e cells. […]
cells (10,000 cells/well) were plated in RPMI-1640 supplemented with 10% fetal bovine serum (FBS) in a 96-well plate and incubated with proteins (rIL-15, rILR-Fc/rIL-15, rIL-15Rα-Fc/rIL-15, rIL-15-wt, rILR-Fc/rIL-15-wt and rIL-15Rα-Fc/rIL-15-wt) at the specified concentration for 72 h at 37 °C. Cell proliferation was determined using the water-soluble tetrazolium 1 (WST-1) cell counting kit (Beyotime, Shanghai, China) following the manufacturer’s instructions. Similarity, the biological activity of nanoparticles was determined by incubated with nanoparticles at the specified concentration to stimulate the proliferation of M-07e cells. […]
Aﬃnity was measured by enzyme-linked immunosorbent assay (ELISA). […]

[2] = Serum pharmacokinetics of rIL-15 after i.v. injection (ELISA); format: in vivo, C57BL/6 mice; conditions: 0.3 mg/kg of rIL-15, mice
Protocol: For the rIL-15 group, blood was collected from the tail veins at time points of 5, 10, 15, 20, 30, 45, 60, 75, and 90 min post-injection, respectively. For the other groups, blood was collected at time points of 5, 10, 20, 30, 60, 90, 120, 180, 240, 300, and 360 min post-injection, respectively. The concentrations of rIL-15 in mouse sera were quantified by ELISA, as described above regarding the characterization of the nanoparticles.
(§1) Pharmacokinetic parameters including the elimination half-life (t1/2), the area under the concentration–time curve to the least measurable concentration (AUC0→n), the area under the moment curve (AUMC), the mean residence time (MRT), clearance (Cl), and the steady-state volume of distribution (Vss) were calculated using non-compartmental analysis.

[3] = tested on: orthotopic CT26-Luc tumors; assay: Antitumor effect, survival and rechallenge; conditions: PhA-containing groups + PDT; rILR-Fc/rIL-15 without laser; 2.5 mg/kg of PhA, 0.3 mg/kg of rIL-15; n = 8; PBS group 32 days
Protocol: For the laser treatment, the abdominal cavity of the mouse was opened under anesthesia; then, the tumor foci on the cecum were exposed and irradiated with a 660 nm diode laser (80 mW/cm^2) through a quartz optic fiber (0.9 mm diameter) for 10 min at 35 min post-injection. The abdominal cavity was sutured after the laser treatment. […] The tumor burden was monitored via the bioluminescence signal using an IVIS system after the i.p. injection of D-luciferin (15 mg/mL, 200 μL).
Age-matched naive male BALB/c mice were used as the controls. The tumor volume and the bioluminescence signals were recorded to assess the antitumor effects following different treatments. The death point was defined as when the tumor volume reached 2000 mm^3, calculated by the following equation:(3) Vt=L × W^2/2 where Vt is the tumor volume, L is the tumor length, and W is the tumor width.

[4] = Skin photosensitivity after xenon light; format: in vivo, BALB/c mice; conditions: 2.5 mg/kg of PhA i.v., xenon light 5 mW/cm^2 for 25 min at 24 h post-injection
Protocol: To evaluate the skin photosensitivity, healthy BALB/c mice were depilated and randomly divided into three groups. […] Mice injected with PBS were used as controls. At 24 h post-injection, all mice were exposed to a long-arc xenon lamp (5 mW/cm^2, 25 min), which is generally used in solar simulation systems, emitting a high-intensity radiant flux with a visible spectrum closely approximating that of unfiltered daylight. A 1.5 cm × 1.5 cm section of skin was collected from the dorsal areas of the mice for H&E staining.

[5] = molecular target: T1, rILR-Fc (Homo sapiens, UniProt Q13261); assay: Microscale thermophoresis of PhA with Cy5-labeled rILR-Fc; format: binding; conditions: MST, Cy5-labeled rILR-Fc 15 nM, PBS buffer
T1 construct: the human sushi domain (amino acids 1-77) of IL-15-Rα; His tag; made in house; host or cells: Pichia pastoris GS115
Protocol: The dissociation constant (KD) between PhA and rILR-Fc was measured by the microscale thermophoresis (MST) technique, according to our previously reported method. Briefly, PhA was dissolved in dimethyl sulfoxide (DMSO) and subjected to a series of dilutions to prepare ligand solutions ranging from 0.4 μM to 0.098 nM. Cy5-labeled rILR-Fc was prepared at a concentration of 15 nM and incubated with the ligand solutions for 10 min. The resulting samples were then loaded into capillaries (NanoTemper Technologies, Munich, Germany) for MST analysis.

[6] = Plasma pharmacokinetics of PhA after i.v. injection; format: in vivo, BALB/c mice; conditions: 2.5 mg/kg of PhA, mice
Protocol: The free PhA formulation was prepared by dissolving PhA in 0.1% NaOH (w/v) via sonication to obtain a 4 mg/mL stock solution, followed by dilution with PBS to obtain the injection dose. An alkali solution can increase the solubility of pheophorbide A applied to photodynamic therapy. Blood samples were collected from the tail veins into heparin tubes at time points of 0.1, 0.5, 0.75, 1, 1.5, 2, 3, 4, and 5 h post-injection, respectively. PhA was extracted from plasma using a mixture of acetonitrile and methanol (1:1 v/v). The mixture was vortexed for 10 s, followed by centrifugation at 12,000 rpm for 10 min at 4 °C. The supernatant was transferred to a black 96-well plate, and the concentration of PhA was determined by the Hybrid Multi-Mode Microplate Reader (λex = 400 nm, λem = 656 nm).
as §1

[7] = tested on: s.c. CT26-Luc tumors; assay: Live fluorescence imaging of PhA in s.c. tumor; format: in vivo, BALB/c mice; conditions: post-injection, i.v., 2.5 mg/kg of PhA
Protocol: The tumor models were established according to our previous method. For the subcutaneous (s.c.) tumor model, 2 × 10^6 CT26-Luc cells in 50 μL PBS were implanted into the right axillary fossae of anesthetized male BALB/c mice. Orthotopic models were established through the injection of 2 × 10^6 CT26-Luc cells (20 μL PBS) into the subserosal layer of the cecum.
Live fluorescence imaging was conducted using the IVIS system (Caliper Life Sciences, USA) (λex = 675 nm, λem = 720 nm) at serial time points (18 min, 30 min, 45 min, 1 h, 1.5 h, 2 h, 3 h, 4 h, 6 h, 17 h, and 27 h) post-injection. The fluorescence intensity in the tumor region was quantified by deducting the fluorescence intensity of the mouse tumor before the administration of nanoparticles from that at each time point post-administration. […] The plasma, heart, liver, spleen, lung, kidney, lymph node, skin, and tumor were harvested for IVIS imaging (λex = 675 nm, λem = 720 nm). The tissue uptake of PhA was presented through the semi-quantitative analysis of the fluorescence intensity.

T1 sequence (Q13261 with tags, fused parts or gaps limits assumed): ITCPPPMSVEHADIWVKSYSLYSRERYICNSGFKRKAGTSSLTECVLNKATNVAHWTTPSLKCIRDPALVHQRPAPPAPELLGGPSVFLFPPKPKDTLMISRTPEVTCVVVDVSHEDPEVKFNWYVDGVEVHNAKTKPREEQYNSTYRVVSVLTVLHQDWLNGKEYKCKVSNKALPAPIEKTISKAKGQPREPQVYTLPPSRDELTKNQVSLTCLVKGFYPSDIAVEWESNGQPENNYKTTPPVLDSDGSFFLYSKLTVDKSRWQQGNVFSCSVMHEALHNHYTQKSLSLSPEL

Row | Compound | EC50 [1] [nM] | EC50 fold smaller than that of rIL-15-wt ([1]; M-07e proliferation) | AUC0→n of rIL-15 [2] | AUMC of rIL-15 [2] | Cl of rIL-15 [2] | MRT of rIL-15 [2] [min] | Vss of rIL-15 [2] | t1/2 of rIL-15 [2] [h] | median survival time [3] [days] | skin after light exposure (H&E staining) [4] | Kd [5] [nM] | AUMC of PhA [6] [μg/mL·h^2] | Cl of PhA [6] | Vss of PhA [6] | MRT ([6]; male, BALB/c, mouse, iv) [h] | AUC ([6]; male, BALB/c, mouse, iv, read-out: AUC0→n of PhA) [ng·h/mL] | half-life ([6]; male, BALB/c, mouse, iv, read-out: t1/2 of PhA (converted)) [h] | time of peak accumulation of PhA in the tumor [7] [h]
1 | rIL-15: N72D-mutated human IL-15 produced in E. coli BL21 (DE3) cells | 0.92 | ~ 3.5 fold | 664.4 ± 196.1 ng/mL·min (×10) | 544.5 ± 73.17 ng/mL·min^2 (×10^2) | 5.766 ± 2.519 (μg)/(ng/mL)/min (×10^−4) | 9.913 ± 2.956 | 6.351 ± 3.348 (μg)/(ng/mL) (×10^−3) | 0.3373 ± 0.0195 | – | – | – | – | – | – | – | – | – | –
2 | C=Cc1c(C)c2cc3nc(c4c5[nH]c(cc6nc(cc1[nH]2)C(C)=C6CC)c(C)c5C(=O)[C@@H]4C(=O)OC)[C@@H](CCC(=O)O)[C@@H]3C [PhA, pheophorbide A] | – | – | – | – | – | – | – | – | 42 | remained unchanged after light exposure | 200 | 15.97 ± 4.162 | 8.129 ± 1.527 (μg)/(μg/mL)/h | 18.20 ± 1.111 (μg)/(μg/mL) | 2.35 ± 0.315 | 6490 ± 1010 | 1.76 ± 0.164 | 1.5
3 | rIL-15-wt: recombinant wild type IL-15 obtained from Sino biological (10360-H07E) | 3.26 | – | – | – | – | – | – | – | – | – | – | – | – | – | – | – | – | –
